Data taken from ChEMBL document CHEMBL5724914, “Linking interpersonal differences in gut microbiota composition and drug biotransformation activity” (2024).

Legend:
[1] = human gut metagenome, 24 h, 2 µM
[2] = human gut metagenome, 24 h, 2 µM; remark: listed apart in the source
[3] = (§1) The drug is tested on WLS-006 corresponding to human gut metagenome with ENA study accession number: PRJEB37062 and ENA sample accession number: ERS12561741 for biotransformation under anaerobic condition. The drug concentrations were measured over 9 timepoints collected between 0 and 24 hours of incubation by liquid-chromatography-coupled mass spectrometry (LC–MS); conditions: 2 µM
[4] = human gut metagenome, 24 h, 2 µM; remark: listed apart in the source
[5] = human gut metagenome, 24 h, 2 µM; remark: listed apart in the source
[6] = human gut metagenome, 24 h, 2 µM; remark: listed apart in the source
[7] = human gut metagenome, 24 h, 2 µM; remark: listed apart in the source
[8] = human gut metagenome, 24 h, 2 µM; remark: listed apart in the source
[9] = as §1, with “Z-002” for “WLS-006”, “rabbit” for “human”, “ERS12561802” for “ERS12561741”; conditions: 2 µM
[10] = human gut metagenome, 24 h, 2 µM; remark: listed apart in the source
[11] = human gut metagenome, 24 h, 2 µM; remark: listed apart in the source
[12] = human gut metagenome, 24 h, 2 µM; remark: listed apart in the source
[13] = as §1, with “Z-019” for “WLS-006”, “rat” for “human”, “ERS12561818” for “ERS12561741”; conditions: 2 µM
[14] = as §1, with “Z-014” for “WLS-006”, “rat” for “human”, “ERS12561814” for “ERS12561741”; conditions: 2 µM
[15] = human gut metagenome, 24 h, 2 µM; remark: listed apart in the source
[16] = human gut metagenome, 24 h, 2 µM; remark: listed apart in the source
[17] = as §1, with “Z-009” for “WLS-006”, “pig” for “human”, “ERS12561809” for “ERS12561741”; conditions: 2 µM
[18] = as §1, with “WLS-098” for “WLS-006”, “ERS12561754” for “ERS12561741”; conditions: 2 µM
[19] = human gut metagenome, 24 h, 2 µM; remark: listed apart in the source
[20] = as §1, with “Z-003” for “WLS-006”, “pig” for “human”, “ERS12561803” for “ERS12561741”; conditions: 2 µM
Further: call rule not given here.

SMILES	Bacterial Biotransformation [1]	Bacterial Biotransformation [2]	Bacterial Biotransformation [3]	Bacterial Biotransformation [4]	Bacterial Biotransformation [5]	Bacterial Biotransformation [6]	Bacterial Biotransformation [7]	Bacterial Biotransformation [8]	Bacterial Biotransformation [9]	Bacterial Biotransformation [10]	Bacterial Biotransformation [11]	Bacterial Biotransformation [12]	Bacterial Biotransformation [13]	Bacterial Biotransformation [14]	Bacterial Biotransformation [15]	Bacterial Biotransformation [16]	Bacterial Biotransformation [17]	Bacterial Biotransformation [18]	Bacterial Biotransformation [19]	Bacterial Biotransformation [20]
CC(Oc1c(Cl)cccc1Cl)C1=NCCN1 (stereo not given) [LOFEXIDINE]	Compound NOT metabolized	Compound NOT metabolized	Compound NOT metabolized	Compound NOT metabolized	Compound metabolized	Compound NOT metabolized	Compound NOT metabolized	Compound NOT metabolized	Compound metabolized	Compound NOT metabolized	Compound metabolized	Compound NOT metabolized	Compound NOT metabolized	Compound NOT metabolized	Compound metabolized	Compound metabolized	Compound NOT metabolized	Compound metabolized	Compound NOT metabolized	Compound NOT metabolized
CN1CCC(=C2c3ccccc3CCc3cccnc32)CC1.O=C(O)/C=C\C(=O)O.O=C(O)/C=C\C(=O)O [AZATADINE MALEATE]	Compound NOT metabolized	Compound NOT metabolized	Compound NOT metabolized	Compound NOT metabolized	Compound NOT metabolized	Compound NOT metabolized	Compound NOT metabolized	Compound NOT metabolized	Compound NOT metabolized	Compound NOT metabolized	Compound metabolized	Compound NOT metabolized	Compound NOT metabolized	Compound NOT metabolized	Compound NOT metabolized	Compound NOT metabolized	Compound NOT metabolized	Compound NOT metabolized	Compound NOT metabolized	Compound NOT metabolized
Cc1ccnc2c1NC(=O)c1cccnc1N2C1CC1 [NEVIRAPINE]	Compound NOT metabolized	Compound NOT metabolized	Compound NOT metabolized	Compound NOT metabolized	Compound metabolized	Compound NOT metabolized	Compound NOT metabolized	Compound NOT metabolized	Compound metabolized	Compound metabolized	Compound metabolized	Compound NOT metabolized	Compound NOT metabolized	Compound NOT metabolized	Compound metabolized	Compound metabolized	Compound NOT metabolized	Compound metabolized	Compound NOT metabolized	Compound NOT metabolized
CC(C)N(CCC(C(N)=O)(c1ccccc1)c1ccccn1)C(C)C.O=P(O)(O)O (stereo not given) [DISOPYRAMIDE PHOSPHATE]	Compound NOT metabolized	Compound NOT metabolized	Compound metabolized	Compound NOT metabolized	Compound metabolized	Compound NOT metabolized	Compound NOT metabolized	Compound NOT metabolized	Compound NOT metabolized	Compound NOT metabolized	Compound metabolized	Compound NOT metabolized	Compound NOT metabolized	Compound NOT metabolized	Compound metabolized	Compound metabolized	Compound NOT metabolized	Compound metabolized	Compound NOT metabolized	Compound NOT metabolized
CC(=O)CC(c1ccccc1)c1c(O)c2ccccc2oc1=O (stereo not given) [WARFARIN]	Compound metabolized	Compound metabolized	Compound metabolized	Compound metabolized	Compound metabolized	Compound metabolized	Compound metabolized	Compound metabolized	Compound metabolized	Compound metabolized	Compound metabolized	Compound metabolized	Compound NOT metabolized	Compound metabolized	Compound metabolized	Compound metabolized	Compound metabolized	Compound metabolized	Compound metabolized	Compound metabolized
O=C(NCc1ccccc1)OCCO [BURAMATE]	Compound NOT metabolized	Compound NOT metabolized	Compound NOT metabolized	Compound NOT metabolized	Compound NOT metabolized	Compound NOT metabolized	Compound NOT metabolized	Compound NOT metabolized	Compound NOT metabolized	Compound NOT metabolized	Compound NOT metabolized	Compound NOT metabolized	Compound NOT metabolized	Compound NOT metabolized	Compound NOT metabolized	Compound NOT metabolized	Compound NOT metabolized	Compound NOT metabolized	Compound NOT metabolized	Compound NOT metabolized
CS(=O)(=O)O.OC(CCN1CCCCC1)(c1ccccc1)c1ccccc1 [PRIDINOL METHANESULFONATE]	Compound NOT metabolized	Compound NOT metabolized	Compound metabolized	Compound NOT metabolized	Compound metabolized	Compound NOT metabolized	Compound metabolized	Compound NOT metabolized	Compound metabolized	Compound NOT metabolized	Compound metabolized	Compound NOT metabolized	Compound NOT metabolized	Compound NOT metabolized	Compound metabolized	Compound metabolized	Compound NOT metabolized	Compound metabolized	Compound NOT metabolized	Compound metabolized
O=P(O)(O)O.c1ccc(CN(CC2=NCCN2)c2ccccc2)cc1 [ANTAZOLINE PHOSPHATE]	Compound NOT metabolized	Compound NOT metabolized	Compound metabolized	Compound NOT metabolized	Compound metabolized	Compound NOT metabolized	Compound NOT metabolized	Compound NOT metabolized	Compound metabolized	Compound NOT metabolized	Compound metabolized	Compound NOT metabolized	Compound NOT metabolized	Compound NOT metabolized	Compound metabolized	Compound metabolized	Compound NOT metabolized	Compound metabolized	Compound NOT metabolized	Compound metabolized
COc1cc2nc(N3CCN(C(=O)c4ccco4)CC3)nc(N)c2cc1OC [PRAZOSIN]	Compound NOT metabolized	Compound NOT metabolized	Compound NOT metabolized	Compound NOT metabolized	Compound metabolized	Compound NOT metabolized	Compound metabolized	Compound NOT metabolized	Compound NOT metabolized	Compound metabolized	Compound metabolized	Compound NOT metabolized	Compound NOT metabolized	Compound NOT metabolized	Compound metabolized	Compound metabolized	Compound NOT metabolized	Compound metabolized	Compound NOT metabolized	Compound NOT metabolized
